Paper PMC4249368 (Antimicrobial Agents and Chemotherapy, 2014)
In brackets after ≈: the same amount, converted by molar mass. Entries after “also recorded” stand apart in the source; their conditions may differ. Like-named read-outs stand apart in the source and are kept apart here. No end group written: not given here.

Columns and labels:
MSSA ATCC 25923 [1] = experiment: TEM examination of bacterial ultrastructure; format: cell-based, Staphylococcus aureus; conditions: 3 h, 37°C, CA-MHB
Experimental: After centrifugation (8,000 × rpm, 3 min), the pellets were resuspended in 1 ml of 3% (vol/vol) glutaraldehyde in 0.1 M sodium cacodylate. Glutaraldehyde–fixed samples were washed twice with 0.1 M sodium cacodylate. To postfit cells, 1% (wt/vol) osmium tetraoxide was added. After the wash step, samples were stained with 2% (wt/vol) uranyl acetate in 50% ethanol. Samples were then dehydrated with graded ethanol solutions and infiltrated with Epon resin (ProSciTech, Townsville, Australia). All processes were performed on a Pelco 34700 Biowave microwave oven (Ted Pella Inc., Redding, CA). Ultrathin sections were cut at 60 to 70 nm by using a UC6 ultramicrotome (Leica). The sections were examined in a JEM 1011 TEM operated at 80 kV and photographed using a digital camera.

MSSA ATCC 25923 [2] = conditions: for MBC, 10% Human serum: Table S1, MHB with 10% human serum; for MBC, 50% Human serum: Table S1, MHB with 50% human serum; for MBC, MHB: Table S1, MHB without serum, clear wells plated onto agar, 37°C overnight
Experimental: MICs against MSSA ATCC 25923 were measured by broth microdilution according to the Clinical and Laboratory Standards Institute (CLSI) M7-A7 methodology ([30]). Briefly, serial 2-fold dilutions of each antibiotic were added into Costar nontreated polystyrene 96-well plates, and each well was inoculated with 50 μl of MSSA in MHB to a final concentration of approximately 5 × 10^5 CFU/ml. […] The dilution representing the MIC and two of the more and less concentrated dilutions were plated out onto Trypticase soy agar plates and enumerated to determine viable CFU/ml ([31]). […]
25923 in MHB media in the presence and absence of Human serum (10% and 50%) in
Corning NonTC microtitre plates (CLS3370)
a The MBCs were determined by plating out the clear wells onto an agar plate and were incubated at
37°C overnight. Each colony represents one viable bacterium. […]

MSSA ATCC 25923 [3] = experiment: Membrane depolarization assay with DiSC3(5); format: cell-based, Staphylococcus aureus; conditions: for membrane depolarization (result in words): 0.1 to 30 μM, Fig. 4, n = 3
Experimental: Antibiotic-induced bacterial cytoplasmic membrane depolarization was determined by using the fluorescent dye 3,3-dipropylthiacarbocyanine [DiSC3(5); Sigma-Aldrich, Australia] as previously described ([38]) with a high-throughput modification. Briefly, mid-logarithmic-phase MSSA ATCC 25923 cells were collected by centrifugation (5,000 × rpm, 10 min), washed once and diluted to approximately 5 × 10^7 CFU/ml in buffer (5 mM HEPES, 5 mM glucose; pH 7.2). The cell suspension was incubated with 0.4 μM DiSC3(5) until dye uptake was maximal, as indicated by a stable reduction in fluorescence of assay medium. KCl at 100 mM was added to equilibrate the cytoplasmic and external K^+ concentrations. A 90-μl aliquot of cell suspension was transferred into an Optiplate 96-well white microplate (PerkinElmer Corp., Australia), and 10 μl of antibiotic was added, to yield a series of solutions ranging from 0.1 to 30 μM. A blank with only cell suspension and dye was used for background subtraction. The fluorescence intensity was monitored in real time by using a BMG Labtech PolarStar Omega multimode reader fitted with 620-10 and 665-10 excitation and emission filters, respectively, at an excitation wavelength of 622 nm and an emission wavelength of 670 nm. The membrane depolarization assays were performed in triplicate, and the fluorescence leakage (FL) was defined by the following equation: FL = (FF − FB) − (FI − FB). Here, FF was the final fluorescence intensity in assay medium after 30 min of treatment with antibiotic, FI was the initial fluorescence intensity of the cell suspension, and FB was the fluorescence intensity of the blank.

[4] = SPR binding to lipid bilayers on Biacore L1 chip; conditions: for normalized antibiotic bound to the three lipid bilayers (result in words): 10 μM, normalized to molecular weight and RULipid, Fig. 3B, n = 3
Experimental: Lipid stock solutions were prepared in chloroform and mixed at the described mass composition of POPC, POPC/POPG (8:2, wt/wt) and POPC/POPE (8:2, wt/wt) ([33]), and the chloroform was evaporated as previously described ([34]). The lipids were resuspended in 1 ml of filtered (0.22-μm pore size) running buffer (phosphate-buffered saline [PBS]; pH 7.3) and then sonicated for 25 min in 5-min intervals. Small unilamellar vesicles (SUVs) were prepared by extrusion through a polycarbonate filter with a 50-nm pore diameter ([35]).
SPR experiments were carried out with a Biacore T200 system (GE Health, Australia) using a Biacore vesicle capture (L1) sensor chip, which has lipophilic groups covalently attached to carboxymethylated dextran that facilitates direct lipid bilayer deposition ([34], [36]). All measurements were undertaken at a temperature of 25°C to maintain the lipid bilayer fluidity ([34]). SUVs at a total lipid concentration of 0.5 mg/ml were immediately passed across the chip surface for 60 min at a low flow rate of 2 μl/min, following three 30-s injections of 20 mM 3-cholamidopropyl-dimethylammonio-1-propane sulfonate (CHAPS) solution at a high flow rate of 30 μl/min to completely remove the captured vesicles from the sensor chip. To remove any multilamellar structures from the lipid surface and to stabilize the baseline, 10 mM NaOH was injected for 1 min at 50 μl/min. The coverage extent of the surface was later determined by a 5-min injection of 0.1 mg/ml bovine serum albumin (BSA) at a flow rate of 10 μl/min.
The antibiotics were serially diluted in running buffer and then injected sequentially from the lowest (0.01 μM) to the highest (10 μM) concentration at a flow rate of 20 μl/min for 180 s, followed by a dissociation of 300 s and a 1-min regeneration with 10 mM HCl at a flow rate of 10 μl/min. SPR experiments were performed in triplicate. The actual amount of antibiotic bound to each lipid bilayer was corrected by subtraction of the bulk refractive index difference (buffer control) and then normalized by dividing the antibiotic-bound resonance units (RUBound) obtained in the SPR sensorgrams (see Fig. 3A, below) by the corresponding antibiotic molecular weight and the resonance units of the individual lipid vesicle captured on the chip surface (RULipid) (see Fig. S1 in the supplemental material) by using the following equation: normalized antibiotic bound = (10^3 × RUBound)/(molecular weight × RULipid). Normalization against molecular weight and RULipid was necessary, as SPR units are mass dependent and RULipid values vary according to lipid type ([37]).

MSSA ATCC 25923 [5] = conditions: for MIC in the presence of 50% human serum: MHB with 50% human serum, broth microdilution; for MIC, MHB: Table S1, MHB without serum, Corning NonTC microtitre plates (CLS3370)
Experimental: MSSA ATCC 25923 was purchased from the American Type Culture Collection (Manassas, VA). Mueller-Hinton broth (MHB; Bacto Laboratories Pty. Ltd.) was used to grow MSSA for determination of in vitro antibacterial activity in the presence and absence of 50% human serum (Life Technologies Australia, Melbourne, Australia) and time-kill assays. Luria-Bertani (LB) medium (Difco) and MHB adjusted with Ca^2+ (25 mg/liter) and Mg^2+ (12.5 mg/liter) (CA-MHB) were used for bacterial growth in the membrane depolarization assay and TEM, respectively. The phospholipids used for SPR analysis, 1-palmitoyl-2-oleoyl-sn-glycero-3-phosphoglycerol (POPG), 1-palmitoyl-2-oleoyl-sn-glycero-3-phosphocholine (POPC), and 1-palmitoyl-2-oleoyl-sn-glycero-3-phosphoethanolamine (POPE), were purchased from Auspep Pty. Ltd. (Melbourne, Australia).
MICs against MSSA ATCC 25923 were measured by broth microdilution according to the Clinical and Laboratory Standards Institute (CLSI) M7-A7 methodology ([30]). Briefly, serial 2-fold dilutions of each antibiotic were added into Costar nontreated polystyrene 96-well plates, and each well was inoculated with 50 μl of MSSA in MHB to a final concentration of approximately 5 × 10^5 CFU/ml. […] The dilution representing the MIC and two of the more and less concentrated dilutions were plated out onto Trypticase soy agar plates and enumerated to determine viable CFU/ml ([31]).

MSSA ATCC 25923 [6] = experiment: Time-kill studies (CLSI M26-A); format: cell-based, Staphylococcus aureus
Experimental: Time-kill studies were carried out based on guideline M26-A of the CLSI ([32]), using Costar nontreated polystyrene 96-well plates. […] Culture aliquots were mixed with the charcoal suspension (25 mg/ml) to minimize antibiotic carryover. Viable cell counts were determined after 0, 0.5, 1, 2, 4, 6, 8, and 24 h of incubation at 37°C by plating serially diluted samples onto Trypticase soy agar plates. Bactericidal activity was defined as a ≥3-log10 CFU/ml decrease, in comparison with the baseline, after 24 h of incubation ([32]).

[7] = design: method as in PMID 23872123, PMID 9791177, PMID 16531990; conditions: phospholipid bilayers; cited from earlier work
[8] = design: method as in PMID 23872123, PMID 9791177, PMID 16531990; conditions: Lipid II pyrophosphate moiety; cited from earlier work
MSSA and MRSA strains = conditions: cited from earlier work
Excerpt: The importance of the membrane depolarization and bactericidal killing in vivo is difficult to quantify due to the limited published pharmacokinetic (PK) studies ([18], [19]), as well as its nonsystemic oral administration in human clinical trials. In addition, MIC determinations can be highly dependent on plate type, serum, and BSA ([18], [41]).

[9] = system: transglycosylation step of peptidoglycan biosynthesis; conditions: relative to MIC against MSSA ATCC 25923; cited from earlier work
[10] = system: MurG-catalyzed reaction of peptidoglycan biosynthesis; conditions: relative to MIC against MSSA ATCC 25923; cited from earlier work
[11] = MHB, broth microdilution CLSI M7-A7, ~5 × 10^5 CFU/ml, 24 h, 37°C, Costar nontreated polystyrene 96-well plates

Row | Molecule | MBC, 10% Human serum (MSSA ATCC 25923 [2]) [µg/mL] | MBC, 50% Human serum (MSSA ATCC 25923 [2]) [µg/mL] | MBC, MHB (MSSA ATCC 25923 [2]) | normalized antibiotic bound to the three lipid bilayers (result in words) [4] | MIC in the presence of 50% human serum (MSSA ATCC 25923 [5]; 24 h, 37°C) [µg/mL] | MIC (MSSA ATCC 25923 [5]; [11]) [µg/mL] | MIC, MHB (MSSA ATCC 25923 [5]) [µg/mL] | membrane depolarization (result in words) (MSSA ATCC 25923 [3]; 30 min treatment) | also measured
1 | CN[C@H](CC(C)C)C(=O)N[C@H]1C(=O)N[C@@H](CC(N)=O)C(=O)N[C@H]2C(=O)N[C@H]3C(=O)N[C@H](C(=O)N[C@H](C(=O)O)c4cc(O)cc(O)c4-c4cc3ccc4O)[C@H](O)c3ccc(c(Cl)c3)Oc3cc2cc(c3O[C@@H]2O[C@H](CO)[C@@H](O)[C@H](O)[C@H]2O[C@H]2C[C@](C)(N)[C@H](O)[C@H](C)O2)Oc2ccc(cc2Cl)[C@H]1O [vancomycin] | 2 (≈ 1.38 µM) | 2 (≈ 1.38 µM) | 2 µg/mL (≈ 1.38 µM) | negligible binding to each of the three different membranes | 2 | 1 (≈ 0.69 µM) | 2 (≈ 1.38 µM) |  | morphological changes by TEM (MSSA ATCC 25923 [1]; 16× MIC): did not cause septal deformation or loss of midline; fluorescence leakage (MSSA ATCC 25923 [3]; 12× MIC, 30 min): no leakage; MIC, 10% Human serum (MSSA ATCC 25923 [5]; Table S1, MHB with 10% human serum, Corning NonTC plates): 1/2; MIC, 50% Human serum (MSSA ATCC 25923 [5]; Table S1, MHB with 50% human serum, Corning NonTC plates): 2 µg/mL (≈ 1.38 µM); reduction in viable count (MSSA ATCC 25923 [6]; vancomycin at the MBC and above for 8 h): > 3 log10 CFU/ml
2 | GLFDVIKKVASVIGGL-NH2 [citropin 1.1] |  |  |  |  |  |  |  |  | MIC (MSSA ATCC 25923 [5]; ATCC 25923, 24 h): 32 µg/mL
3 | nisin |  |  |  | no binding to either anionic or zwitterionic phospholipid bilayers |  | 32 |  | dramatic membrane depolarization at the MIC and above | Kd [7]: 100 µM; concentration at which membrane depolarization occurs (MSSA ATCC 25923 [3]; 30 min treatment, DiSC3(5), normalized to citropin 1.1 at 10 μM, ramoplanin 3× MIC gives similar extent as […] MIC nisin): 0.25 × MIC; Kd [8]: 0.01 µM
4 | ramoplanin |  | 0.5 | 8/2 | POPC:POPG (8:2) > POPC > POPC:POPE (8:2) | 0.5 |  |  | dose-dependent membrane depolarization but less efficiently than nisin | effect of 50% human serum on MIC (MSSA and MRSA strains): not affected; morphological changes by TEM (MSSA ATCC 25923 [1]; 1× MIC): deformed septa that were slightly thickened, misshapen, and lacked distinct septal midlines; also recorded: appearance of mesosome structures in cell membranes; MBC as multiple of MIC (MSSA ATCC 25923 [2]): 2 × MIC; MBC (MSSA ATCC 25923 [2]; lowest concentration yielding 99.9% reduction in initial colony count after 24 h, MHB): 4 µg/mL; 50% inhibitory concentration (IC50), transglycosylation [9]: 0.25 × MIC; IC50, MurG-catalyzed reaction [10]: 20 × MIC; SPR dissociation after completion of injection ([4]; 0.01 to 1 μM): complete dissociation; SPR association with membranes at low concentrations ([4]; 0.01 to 1 μM, PBS pH 7.3, 25°C): negligible association; SPR binding response (RUBound) ([4]; 3 and 10 μM, both anionic and zwitterionic membranes, 180 s injection, PBS pH 7.3, 25°C): ~6,000 RU; concentration at which binding to anionic and zwitterionic membranes occurs ([4]; dose-dependent): ≥ 3 µM; time to bactericidal activity (MSSA ATCC 25923 [6]; concentrations equal to or above the MBC): less than 4 h
5 | teicoplanin | 0.25 | 0.5 | 4 µg/mL | bound preferentially to the anionic membrane over zwitterionic membranes |  | 1 | 2 | measurable but minor fluorescence leakage at concentrations significantly higher than the MIC | 
